{"source": "patent US7871981B2", "about": "“Inhibition of cell motility, angiogenesis, and metastasis” (The United States of America as represented by the …, priority 1999, dated 2011)", "molecules": {"B1": {"name": "PDGF-BB: platelet-derived growth factor used to stimulate NIH 3T3 migration (protein, UniProt P01127 82-190, looked up)", "Platelet-derived growth …": "SLGSLTIAEPAMIAECKTRTEVFEISRRLIDRTNANFLVWPPCVEVQRCSGCCNNRNVQCRPTQVQLRPVQVRKIEIVRKKPIFKKATVTLEDHLACKCETVAAARPVT", "modifications": "homodimer", "notes": "platelet-derived growth factor used to stimulate NIH 3T3 migration"}}, "key": {"HUVE cells [1]": {"system": "HUVE cells", "experiment": "HUVE cell migration, modified Boyden chamber", "type": "cell-based, human", "protocol": "(§1) The migration assay of HUVE and HMEC-1 cells in modified Boyden chambers was adapted from previously described procedures (Murohara et al., Thromb. Vasc. Biol., 19: 1156-61 (1999), Malinda et al., FASEB J., 13: 53-62 (1999)). In brief, Biocoat Cell Environment control inserts (8 micron pore size; Becton Dickinson) were coated with 0.1% gelatin (Sigma) for at least 1 hour at 37° C. and air dried. Lower chambers contained 0.7 ml RPMI+0.1% BSA, to which 20 ng/ml HGF and/or 300 nM Grb2 inhibitors were added. Cells were pre-treated with the indicated concentrations of Grb2 inhibitors for 18-24 hours, trypsinized, washed twice in RPMI+0.1% BSA, added to upper chambers (5×10^4 cells/well) with or without inhibitors in a final volume of 0.5 ml, and incubated for 4 h at 37° C. Cells on the upper surface of each filter were removed with a cotton swab, while cells that had traversed to the bottom surface of the filter were fixed and stained using Diff-Quik (Dade Diagnostics) and counted using a 10× objective. Mean values from 4 randomly selected fields (1×1.4 mm) were calculated for each of triplicate wells per experimental condition. Shown in FIG. 6 is the ratio of growth factor-treated to control migrating cells designated on the y-axis as “Migration (Fold Increase)” or as the mean number of cells per optical field in FIGS. 8-11."}, "HMEC-1 cells [2]": {"system": "HMEC-1 cells", "experiment": "HMEC-1 cell migration, modified Boyden chamber", "type": "cell-based, human", "protocol": "as §1"}, "TAC-2 cells": {"system": "TAC-2 cells", "experiment": "Epithelial tube formation assay, TAC-2 cells in collagen gels", "type": "cell-based", "settings": "for HGF-induced elongation of epithelial tubes (cord length): HGF 20 ng/ml, 3 days; for concentration at which a sub-maximal inhibitory effect is already observed: HGF-induced tube elongation", "protocol": "TAC-2 cells were suspended in three-dimensional collagen gels at 1×10^4 cells/ml in collagen and incubated in complete medium containing HGF and/or Grb2 inhibitors as indicated. After 3 days, the cultures were fixed with 2.5% glutaraldehyde in 0.1 M cacodylate buffer, and at least 3 randomly selected fields per experimental condition in each of 3 separate experiments were digitally recorded with brightfield microscopy. The total length of the cords in each individual colony present in each optical field was measured with IPLab. Cord length was considered as “0” in: a) colonies with a spheroidal shape, and b) slightly elongated structures in which the length to diameter ratio was less than 2. The mean values for each experimental condition were compared to controls using the Student's unpaired t-test. Results in FIG. 5 are described as mean total cord length (in μm) per field."}, "HUVECs": {"system": "HUVECs", "experiment": "HUVE cell tubulogenesis assay on Matrigel", "type": "cell-based, human", "protocol": "The HUVE tube formation assay was performed as previously described (Grant et al., J. Cell. Physiol., 153: 614-625 (1992)). Briefly, 96-well plates were coated with 90 μl of Matrigel (10 mg/ml) (Collaborative Research) (Baatout, supra) and incubated at 37° C. for 30 min to promote gelling. 10,000 HUVECs were resuspended in reduced growth medium (serum concentration 10% and 5 U/ml heparin) and added to each well with the indicated reagents in a final volume of 100 μl. After 18 h, the plates were fixed with Diff-Quik, and at least 4 randomly selected fields per experimental conditions were digitally recorded under bright field illumination using a 10× objective. The mean additive length of the cords present in each optical field was measured using IPLab and compared to controls using the Student's unpaired t-test."}, "HMEC-1 cells [3]": {"system": "HMEC-1 cells", "experiment": "Endothelial cell tubulogenesis assay on collagen (HMEC-1 collagen invasion)", "type": "cell-based, human", "protocol": "HMEC-1 cell tubulogenesis assay on collagen gels was adapted from a previously described procedure (Montesano et al., Cell, 42: 469-77 (1985), Pepper et al., Exp. Cell Res., 204: 356-63 (1993)). Cells were seeded onto collagen gels cast in 16-mm wells (2.5×10^4 cells/well) and grown to confluence in reduced growth medium (5% FCS and 150 μg/ml ECGS). At confluence cells were pre-treated with or without Grb2 inhibitors for 24 hours, after which time medium was replaced by fresh medium supplemented with or without the indicated concentration of inhibitors and/or 20 ng/ml HGF. Medium and compounds were changed every day. After 24 hours, the cultures were fixed in situ, and 5 randomly selected optical fields per experimental condition in each of three separate experiments were digitally recorded under phase contrast microscopy using a 20× phase contrast objective, by focusing 20 μm beneath the surface of the gel. Invasion was quantitated using IPLab software (Scanalytics, Fairfax, Va.) by measuring the total length of all cellular structures that had penetrated beneath the surface monolayer either as apparently single cells or in the form of cell cords. Values were compared using Student's unpaired t-test and a significant value was taken at P<0.001. Results set forth in FIG. 7 are the mean total length (in μm) per field."}, "MDCK cells": {"system": "MDCK cells", "experiment": "Extracellular matrix invasion assay, MDCK cells in collagen gels", "type": "cell-based, canine", "settings": "peptide 100 nM", "protocol": "MDCK cell invasion into three-dimensional collagen gels was analyzed as previously described. Briefly, type I collagen (1.5 mg/ml; Cohesion Technologies) was mixed with 10×MEM and sodium bicarbonate (11.76 mg/ml) at a ratio of 8:1:1 (vol:vol:vol) on ice, and 0.4 ml aliquots were dispensed into 16-mm tissue culture wells (Nunc), and allowed to gel at 37° C. for 20 min. Cells were seeded onto gels (1×10^4 cells/well) in 0.4 ml of growth medium containing HGF and/or peptides 1 or 4 as indicated. After 5 days, cells were fixed in situ in 2.5% glutaraldehyde in 0.1 M sodium cacodylate buffer (pH 7.4), and cells that had invaded the gel below the surface monolayer in ten randomly selected fields (1×1.4 mm) were counted microscopically using a 20× phase contrast objective. Depth of cellular invasion into the collagen gel was quantitated in the same ten fields per treatment group using a calibrated fine focusing micrometer. Values were compared using the Student's unpaired t-test and a significant value was taken as P<0.001. Results in Table 1 are shown as the mean number of invading cells/field or mean invasion depth/cell in microns+standard error of the mean.\nMDCK cells were left untreated (Control), treated with HGF (10 ng/ml), or HGF+peptide 2 or 4 (100 nM), and invasion into collagen matrices was quantitated microscopically as described above. Values are the mean of at least 10 randomly selected fields±standard error of the mean. Epithelial Tube Formation Assay"}, "HUVE cells [4]": {"system": "HUVE cells", "experiment": "HUVE cell proliferation", "type": "cell-based, human", "settings": "growth factor alone: HGF 25 ng/ml, VEGF 10 ng/ml, bFGF 5 ng/ml", "protocol": "HUVE or HMVE cells were seeded per triplicate in type I collagen-coated 48-well plates (Biocoat) (3000 cells/well) in […] of complete EGM-Bullet Kit medium (BioWhittaker, Walkersville, Md.), allowed to attach for 4 hr and incubated overnight with or without the indicated concentrations of peptide 2. The cultures were rinsed twice in serum-free medium and incubated with EBM medium (BioWhittaker) supplemented with 50 μg/ml heparin, 50 μg/ml ascorbic acid and 10% FCS. After either 4 days (HUVE) or 5 days (HMVE), cells were harvested with trypsin/EDTA and counted with an hemocytometer. The mean number of cells per ml was calculated from 3 independent measures for each of triplicate wells per experimental condition and compared to controls using the Student's unpaired t-test. Results set forth in FIG. 12 are described as the ratio of growth factor-treated to control proliferating cells designated on the y-axis as “Proliferation (Fold Increase)”."}, "NIH 3T3 fibroblasts": {"system": "NIH 3T3 fibroblasts", "experiment": "NIH 3T3 fibroblast migration, modified Boyden chamber", "type": "cell-based", "settings": "PDGF-BB 50 ng/ml alone", "protocol": "as §1\nPDGF is implicated in different biological processes such vascular remodeling, wound healing and cancer (for reviews, see Bornfeldt et al., Ann N Y Acad. Sci., 766:416-30, 1995; Gendron, Surv. Ophthalmol., 44:184-5, 1999). Addition of 50 ng/ml PDGF-BB to NIH 3T3 fibroblasts incubated in a modified Boyden chamber results in a dramatic, 20-fold increase in cell migration. […] This observation opens a potential therapeutical use of the Grb2 inhibitor compounds in the treatment of diseases such as cancer, wound healing disorders, vascular complications of diabetes mellitus, vascular nephropathies, and diseases with occurrence of fibrosis."}, "[5]": {"settings": "peptide 300 nM, no growth factor"}}}
{"molecule": "CCCCCCCCCCCCCC(=O)O[C@@H]1[C@@H](C)[C@@]2(O)[C@@H](C=C(CO)C[C@]3(O)C(=O)C(C)=C[C@@H]23)[C@@H]2C(C)(C)[C@]12OC(C)=O", "note": "[PMA, phorbol myristate acetate, reference compound]", "values": [{"measurement": "increase of cell migration", "setting": "HUVE cells [1]; PMA 40 ng/ml alone", "result": 300, "unit": "%"}]}
{"molecule": "NC(=O)C[C@H](NC(=O)C1(NC(=O)[C@H](Cc2ccc(CP(=O)(O)O)cc2)NC(=O)C(=O)O)CCCCC1)C(=O)NCCCc1cccc2ccccc12", "note": "[peptide 1, oxalyl-Pmp-Ac6c-Asn-NH-(3-naphthalen-1-yl-propyl)]", "values": [{"measurement": "HGF-induced increase on cell motility", "setting": "HMEC-1 cells [2]; peptide 300 nM, HGF 20 ng/ml", "result": "practically reverted to basal levels"}, {"measurement": "basal levels of endothelial cell motility", "setting": "HMEC-1 cells [2]; [5]", "result": "did not significantly alter"}, {"measurement": "HGF-induced elongation of epithelial tubes (cord length)", "setting": "TAC-2 cells", "result": "significantly (p<0.0001) abrogate"}, {"measurement": "concentration at which a sub-maximal inhibitory effect is already observed", "setting": "TAC-2 cells", "result": 30, "unit": "nM"}, {"measurement": "elongation and branching of duct-like structures", "setting": "TAC-2 cells; co-addition with HGF 20 ng/ml", "result": "abrogated the elongation and branching of duct-like structures"}, {"measurement": "mean length of the cords per optical field", "setting": "HUVECs; HGF/NK1 300 ng/ml, peptide 1 μM, 18 h", "result": "2502.8±108", "unit": "μm"}, {"measurement": "extent of cord formation", "setting": "HUVECs; peptide 1 μM + HGF/NK1", "result": "markedly reduced the extent of cord formation"}, {"measurement": "decrease in mean cord length vs HGF/NK1 alone", "setting": "HUVECs; peptide 1 μM + HGF/NK1 300 ng/ml", "result": 30, "unit": "%"}, {"measurement": "bFGF-induced HUVEC migration", "setting": "HUVE cells [1]; peptide 300 nM", "result": "complete blockade"}, {"measurement": "HGF-induced increase on cell motility", "setting": "HUVE cells [1]; peptide 300 nM, HGF 20 ng/ml", "result": "practically reverted to basal levels"}, {"measurement": "basal levels of endothelial cell motility", "setting": "HUVE cells [1]; [5]", "result": "did not significantly alter"}, {"measurement": "collagen invasion induced by HGF", "setting": "HMEC-1 cells [3]; peptide 30-300 nM, HGF 20 ng/ml", "result": "suppressed"}]}
{"molecule": "CC(=O)N[C@@H](Cc1ccc(C(C(=O)O)C(=O)O)cc1)C(=O)NC1(C(=O)N[C@@H](CC(N)=O)C(=O)NCCCc2cccc3ccccc23)CCCCC1", "note": "[peptide 3, (N-acetyl-4-malonyl)-Phe-Ac6c-Asn-NH-(3-naphthalen-1-yl-propyl)]", "values": [{"measurement": "HGF-induced elongation of epithelial tubes (cord length)", "setting": "TAC-2 cells", "result": "significantly (p<0.0001) abrogate"}, {"measurement": "concentration at which a sub-maximal inhibitory effect is already observed", "setting": "TAC-2 cells", "result": 30, "unit": "nM"}, {"measurement": "reduction of the mean depth of invasion per cell", "setting": "MDCK cells; HGF-stimulated", "result": "at least 50%"}, {"measurement": "reduction of the number of invading cells", "setting": "MDCK cells; HGF-stimulated", "result": "at least 50%"}]}
{"molecule": "HGF: hepatocyte growth factor, recombinant human", "values": [{"measurement": "increase on cell motility induced by growth factor", "setting": "HMEC-1 cells [2]; HGF 20 ng/ml alone", "result": 5.5, "unit": "fold"}, {"measurement": "Mean Invading Cells/Field", "setting": "MDCK cells; HGF 10 ng/ml, 5 days", "result": "29.7 ± 2.6"}, {"measurement": "Mean Invasion Depth/Cell", "setting": "MDCK cells; HGF 10 ng/ml, 5 days", "result": "35.6 ± 2.7", "unit": "μm"}, {"measurement": "increase in the mean number of HUVE cells per ml (proliferation)", "setting": "HUVE cells [4]", "result": 2.3, "unit": "fold"}, {"measurement": "increase on cell motility induced by growth factor", "setting": "HUVE cells [1]; HGF 20 ng/ml alone", "result": 3.5, "unit": "fold"}, {"measurement": "increase in collagen invasion", "setting": "HMEC-1 cells [3]; HGF 20 ng/ml alone", "result": 6, "unit": "fold"}]}
{"molecule": "VEGF", "values": [{"measurement": "increase in the mean number of HUVE cells per ml (proliferation)", "setting": "HUVE cells [4]", "result": 2, "unit": "fold"}]}
{"molecule": "bFGF: human recombinant basic fibroblast growth factor", "values": [{"measurement": "increase in the mean number of HUVE cells per ml (proliferation)", "setting": "HUVE cells [4]", "result": 4.1, "unit": "fold"}]}
{"molecule": "B1", "values": [{"measurement": "increase in cell migration", "setting": "NIH 3T3 fibroblasts", "result": 20, "unit": "fold"}]}
